Patent publication US20140378496A1, “OPIOID […] 3-HYDROXYA[…] TREATING PAIN” (SLX PHARMACEUTICALS, LLC, priority 2011, published 2014)

Test system: visceral pain model in mice
Test: Acetic acid writhing protocol (abdominal contortion test), visceral pain model in mice
Assay type: in vivo, male Swiss Webster mice
Conditions: 50-400 mg/kg PO; lowest dose (50 mpk) removed as apparent outlier
Method: In order to test the analgesic activity of the combination of an opioid (hydrocodone) and 3-hydroxyacetanilide, both compounds were tested separately and in combination in a visceral pain model in mice.
Experimental animals: One hundred fifty-five 4-week old, male Swiss Webster mice (stock number 024) were purchased from Charles River Laboratories (Portage, Mich.). The study animals were allowed an acclimation period of 1-2 weeks prior to dose initiation. The mice were housed 4-6 per cage and maintained in the Innovive caging system (San Diego, Calif.) upon arrival at. In accordance with the Guide for Care and Use of Laboratory Animals (Eighth Edition), mouse rooms were maintained at temperatures of 66-75 degrees Fahrenheit and relative humidity between 30% and 70%. Cages were monitored daily to ensure the Innovive system maintained 50 air changes per hour and positive pressure. The rooms were lit by artificial light for 12 hours each day (7:00 AM -7:00 PM). […]
Animals were allowed to acclimate to the testing room for a minimum of 1 hour prior to the experiment. […] The number of writhes over a 5 min duration were counted (5-10 and 15-20 min post-dose) starting 5 min after acetic acid administration. […]

In the case of `CC(=O)Nc1cccc(O)c1` [3-hydroxyacetanilide], the “shape of dose response curve (% AA vs dose)” value is reported as “bell-shaped”.
